Data set [1] has as its system 3T3-L1 cells. As to the kind of experiment: 3T3-L1 adipocyte differentiation, Oil Red O lipid accumulation. It counts as cell-based, murine. The conditions noted are these: differentiation cocktail plus zafirlukast or montelukast 1, 5, 10 μM or rosiglitazone 2 μM; 14 days. As for the experimental part:
3T3-L1 cells were differentiated into adipocytes for 14 days according to the protocol of [Zebisch et al. (2012)]. For this, cells were seeded in 6-well plates ([…]) and differentiation was induced after 48 h by addition of a differentiation cocktail containing 1 μg/mL insulin, 0.25 μM dexamethasone and 0.5 mM isobutylmethylxanthine (IBMX) in DMEM supplemented with 10% FCS and 1% PS. […] After 2 days, medium was replaced by DMEM supplemented with 10% FCS, 1% PS and 1 μg/mL insulin for 2 more days. Afterwards, cells were kept for lipid droplet accumulation in DMEM containing 10% FCS and 1% PS until day 15. Media were replaced every other day.
Differentiated 3T3-L1 cells were washed with PBS and subsequently fixed for 60 min with formaldehyde (4% in PBS). Afterwards, cells were thoroughly rinsed with 60% isopropanol and incubated with Oil Red O solution (0.3% in 60% isopropanol) for 120 min. This was followed by the removal of the staining solution and thorough rinsing of the cell layer with ultrapure water. Finally, the plates were dried and pictures of the stained cell layers were taken.
For quantification of the accumulated dye, 3T3-L1 cells were seeded in 24-well plates (0.55 × 10^5/well) instead of 6-wells and the differentiation was carried out as described in the section ‘Adipocyte differentiation’. After 14 days of differentiation, cells were fixed and stained as described above. […] 100 μl of dye extract were transferred to a 96-well plate and absorbance was measured (λabs = 510 nm) by an Infinite F200 plate reader (Tecan Group Ltd., Männedorf, Switzerland). […]
As master regulator of adipocyte differentiation in men and mice, PPARγ plays a crucial role in the cell’s commitment to the adipocyte lineage by controlling important functions such as intracellular biosynthesis, transport and accumulation of lipids. […] Upon differentiation, different parameters such as lipid accumulation and PPARγ target gene expression can be assessed to investigate the PPARγ activating potential of the compounds of interest. […]

The subject of data set [2] is CysLT1R. The conditions noted are these: Table 2 comparison column; no method, no reference given; cited from earlier work.
In data set [3] the target is T1, recombinant human sEH (Homo sapiens, UniProt P34913).
T1 sequence (P34913 1-555): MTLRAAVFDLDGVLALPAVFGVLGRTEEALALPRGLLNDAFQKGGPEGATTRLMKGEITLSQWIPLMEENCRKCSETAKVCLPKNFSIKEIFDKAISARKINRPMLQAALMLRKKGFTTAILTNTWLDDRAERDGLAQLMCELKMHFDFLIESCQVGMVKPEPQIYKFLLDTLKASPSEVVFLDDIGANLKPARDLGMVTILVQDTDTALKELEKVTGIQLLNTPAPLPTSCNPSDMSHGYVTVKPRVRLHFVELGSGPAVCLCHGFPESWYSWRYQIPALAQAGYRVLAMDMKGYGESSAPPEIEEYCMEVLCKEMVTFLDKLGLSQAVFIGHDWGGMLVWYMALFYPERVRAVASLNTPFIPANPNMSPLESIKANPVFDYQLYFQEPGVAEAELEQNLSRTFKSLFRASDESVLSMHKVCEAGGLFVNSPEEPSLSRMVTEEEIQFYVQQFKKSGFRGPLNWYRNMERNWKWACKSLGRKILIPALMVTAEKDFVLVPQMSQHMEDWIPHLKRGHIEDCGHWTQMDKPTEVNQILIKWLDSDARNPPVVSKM
The data set can be described thus: Recombinant sEH activity (PHOME fluorescence assay). It counts as biochemical. The conditions noted are these: PHOME 50 μM, 30 min preincubation at RT, read-out: sEH rec. IC50.
Procedure: For determination of IC50 values of recombinant human sEH a 96-well fluorescence-based assay system was used as described before ([Blöcher et al., 2016a]). In brief, non-fluorescent PHOME (3 phenylcyano-(6-methoxy-2-naphthalenyl)methyl ester 2-oxiraneacetic acid, Cayman Chemicals, Ann Arbor, MI, United States) was used as substrate, which is hydrolyzed by sEH to the fluorescent 6-methoxynaphthaldehyde ([Rau et al., 2006]). The formation of the fluorescent product was measured (λem = 330 nm, λex = 465 nm) by an Infinite F200 Pro plate reader (Tecan Group Ltd., Männedorf, Switzerland). For that purpose, 2 μg recombinant human sEH in 100 μl bis-Tris buffer (pH 7, 0.1 mg/mL BSA, 0.01% Triton-X 100) was applied per well. This protein solution was then incubated with different concentrations of the test compounds for 30 min at RT. After this, 10 μL of the substrate were added (final concentration 50 μM). The formation of 6-methoxynaphthaldehyde was monitored for 30 min. All concentrations were tested in triplicate wells.

Data set [4] has as its system PPARγ2 phosphorylation at serine 273. The data set can be described thus: TNFα triggered PPARγ Ser273 phosphorylation in 3T3-L1 adipocytes (Western Blot). The conditions noted are these: zafirlukast 1 or 10 μM or rosiglitazone 2 μM for 45 min, then TNFα 50 ng/mL 30 min. Type of data set: cell-based, murine. As for the experimental part:
Total 3T3-L1 or HEP-G2 cell lysates were prepared in lysis buffer (20 mM Tris-HCl, pH 7.4, 150 mM NaCl, 2 mM EDTA, 1% Triton X-100, 0.5% NP-40) supplemented with protease and phosphatase inhibitors (PhosSTOP^TM + cOmplete^TM Mini, Roche Diagnostics GmbH, Mannheim, Germany). Protein concentrations were quantified using the Pierce^TM BCA Protein Assay Kit (Thermo Scientific, Waltham, MA, United States). Total protein (30 μg/lane) was separated by SDS-polyacrylamide gel electrophoresis and transferred to nitrocellulose membranes (GE Healthcare Life Sciences, Little Chalfont, United Kingdom). Membranes were blocked with Odyssey blocking reagent (LI-COR Biosciences, Bad Homburg, Germany) for 1 h at room temperature. […] Afterwards, membranes were washed and incubated with fluorescence conjugated secondary antibodies (IRDye, LI-COR Biosciences, Bad Homburg, Germany). […] The density of the immune reactive bands was analyzed using the Image Studio 5.2 software (LI-COR Biosciences, Bad Homburg, Germany).
We induced this post-translational modification by short-term treatment of the differentiated cells with the cytokine TNFα, generating a pro-inflammatory milieu. […] For this, we used an assay system in which the recruitment of the fluorescence-tagged PPARγ coactivator CBP to the PPARγ-LBD was assessed by time-resolved FRET technique in presence and absence of rosiglitazone.

Details of data set [5]: method as in Brocks et al., 1996; Knorr et al., 2001; Karonen et al., 2012. The conditions noted are these: single oral dose of 20 mg; ref Brocks et al., 1996; Knorr et al., 2001; Karonen et al., 2012; cited from earlier work.

Entries after “also recorded” stand apart in the source; their conditions may differ.

Take `CC(C)(O)c1ccccc1CC[C@@H](SCC1(CC(=O)O)CC1)c1cccc(/C=C/c2ccc3ccc(Cl)cc3n2)c1` [Montelukast, montelukast]: the “Lipid accumulation (Oil Red O staining)” value in data set [1] is “did not trigger any lipid accumulation; also recorded: did not induce cell lipid accumulation”.
Consider `COc1cc(C(=O)NS(=O)(=O)c2ccccc2C)ccc1Cc1cn(C)c2ccc(NC(=O)OC3CCCC3)cc12` [Zafirlukast, zafirlukast], for which the IC50 in data set [2] is 5 nM; in data set [3], 1970 ± 80 nM. Moreover, in data set [4], the “TNFα induced phosphorylation of PPARγ2 at serine 273” value is “inhibited this phosphorylation; also recorded: completely revert this phosphorylation”. Moreover, the Peak serum level entry in data set [5] was “about 1 μM”. The “Lipid accumulation (Oil Red O staining)” value in data set [1] is “induced lipid accumulation in a dose-dependent manner, but to a lesser extend compared to rosiglitazone”.
